This is an account of results in patent publication US9116157B2, “Ice-cleaved alpha-synuclein as a biomarker” (Brandeis University, priority 2010, dated 2015).

Structures are written as SMILES.

The nature of data set [1]: Blood-brain barrier penetration in animals, preliminary tests. In kind it is in vivo. An excerpt:
The present example describes an approach for assessing is the ability of, inter alia, the two compounds referenced above (i.e., VX-765 and NCGC00185682) to cross the blood brain-barrier (BBB). […] In view of the fact that studies of VX-765 as a potential epilepsy therapeutic are currently underway at Vertex, it is hypothesized that either BBB penetration in humans is better or that the amount of compound in the CNS that is needed to achieve the desired effect being measured in the studies is small.

Another data set deals with T1, ICE (Homo sapiens, UniProt P29466).
T1 sequence (P29466 120-297 limits assumed): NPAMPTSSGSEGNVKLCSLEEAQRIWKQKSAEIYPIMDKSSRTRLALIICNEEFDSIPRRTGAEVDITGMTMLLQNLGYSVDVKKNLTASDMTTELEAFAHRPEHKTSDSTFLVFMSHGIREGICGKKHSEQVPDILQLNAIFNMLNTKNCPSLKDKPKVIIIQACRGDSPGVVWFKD
T1 sequence (P29466 317-404 limits assumed): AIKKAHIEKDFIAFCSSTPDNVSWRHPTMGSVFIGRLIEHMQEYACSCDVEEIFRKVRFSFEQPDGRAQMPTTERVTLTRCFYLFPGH
Kind of data set: ICE digestion of α-synuclein in vitro, SDS-PAGE and western blot with anti-synuclein antibody. In kind it is biochemical. On the procedure: Here, a 60 ul reaction mixture consisting of 21 μg of synuclein, 10 μg ICE in 100 mM HEPES, pH 7.4, 0.1% OG, 10% glycerol, 150 mM NaCl, with or without 20 μM inhibitor was incubated at 37° C. for 2 hours. 20 μl were withdrawn from the reaction for SDS-PAGE followed by western blotting with anti-synuclein antibody (FIG. 6).
A general note: In western blotting, separated proteins are transferred to a membrane and probed.

Data set [2] deals with M17 cells overexpressing alpha-synuclein. Kind of data set: LIVE/DEAD cell viability assay, rescue from alpha-synuclein-induced toxicity. The data set is classed as cell-based, human. The following applies: FIG. 10. An excerpt: (§1) Humans have 28 calpain and caspase isozymes—a large but not impossible number to test. RNAi was used to knock down each of these in turn in a neuronal cell culture model of PD. It is a neuroblastoma cell line (BE(2)-M17) carrying a wild-type α-synuclein overexpressing vector. BE(2)-M17 is a clone of the SK-N-BE(2) cell line that was established in November of 1972 from a bone marrow biopsy taken from a child with neuroblastoma. Synuclein on its own is not toxic to these cells, but it is toxic when combined with an oxidative stress agent such as rotenone or menadione. Greater than 90% reduction of mRNA levels for each of the 29 protease genes was routinely achieved, and greater than 50% reduction in protein levels (typically, about 70% reduction) was routinely achieved.
A cell viability assay was performed using LIVE/DEAD (molecular probes) assay according to the manufacture instructions. As summarized in FIG. 10, both RNAi knockdown of caspase-1/ICE and treatment with the caspase-1/ICE inhibitor block synuclein fragment formation in nerve cells and should inhibit synuclein aggregation in neuronal cells derived from one or more mouse models of PD.

For data set [3], the system named is M17 cells overexpressing α-synuclein. Kind of data set: M17 cell viability in the presence of menadione (α-synuclein overexpression). The data set is classed as cell-based, human. The following applies: low concentrations; FIG. 8.
Excerpt: as §1

Data set [4] relates to M17 cells carrying empty pcDNA3 vector. Kind of data set: M17 cell viability in the presence of menadione (empty vector). In kind it is cell-based, human. The settings on record: low concentrations; FIG. 8.
Data set [5] relates to M17 overexpressing α-synuclein. Briefly: α-synuclein fragmentation in M17 cells, western blot with anti-synuclein antibody. The settings on record: 12 μM and 14 μM in 1% DMSO; FIG. 9. In kind it is cell-based, human. On the procedure:
In this set of experiments, M17 overexpressing α-synuclein was grown in Optimem in presence or absence of menadione to confluence. Cells were then scraped and lysed by sonnication for SDS-PAGE followed by western blotting with anti-synuclein antibody.

Take `CC(C)(C)[C@H](NC(=O)c1ccc(N)c(Cl)c1)C(=O)N1CCC[C@H]1C(=O)N[C@H](C#N)CC(=O)O` [NCGC00185682]: the BBB penetration entry in data set [1] was “low”. The “ICE-generated α-synuclein fragment below 17 kD (western blot)” value on ICE (20 μM inhibitor, 10 μg ICE, 37° C., 2 hours) is “diminished”. In addition, at ICE (dose-dependent, FIG. 6), the “block of caspase-1 cleavage of alpha-synuclein” value is “completely blocks”.

As to `CCO[C@@H]1OC(=O)C[C@@H]1NC(=O)[C@@H]1CCCN1C(=O)[C@@H](NC(=O)c1ccc(N)c(Cl)c1)C(C)(C)C` [VX-765], the BBB penetration entry in data set [1] is “low”. Further, the “rescue from alpha-synuclein-induced toxicity (cell viability)” value in data set [2] was “rescued”.

As for `CC1=CC(=O)c2ccccc2C1=O` [menadione], in data set [3], the “toxicity to M17 cells overexpressing α-synuclein” value is listed as “toxic”. Moreover, in data set [4], the “toxicity to M17 cells carrying empty pcDNA3 vector” value was “not toxic”. Moreover, the “fragmentation of α-synuclein (smaller fragment below 17 kD)” value in data set [5] is reported as “induced fragmentation of α-synuclein”.
